Test results published in PMC7155755, “Binding of the Human 14-3-3 Isoforms to Distinct Sites in the Leucine-Rich Repeat Kinase 2” (Frontiers in Neuroscience, 2020).
Entries after “also recorded” stand apart in the source; their conditions may differ. Primed or numbered codes have the meaning given here. Ends that are not written are not given here. fluorescein″ = fluorescein label on the N-terminus

Tests used:
[1] = target: T1, human 14-3-3γ (Homo sapiens, UniProt P61981); assay: Fluorescence polarization (FP) direct binding assay; details: fluorescein-labeled peptide 1 nM; for Kd: 20 mM MOPS pH 7, 150 mM NaCl, 0.005% CHAPS, at least three independent measurements, read-out: Binding affinity (KD) toward 14-3-3 isoform γ; for Binding to 14-3-3γ, in words: dilution series of 14-3-3γ (at least 5 μM down to pM), FP buffer pH 7
T1 construct: MBP (cleaved yes); made in house; host or cells: E. coli BL21DE3
T1 sequence (P61981 1-247): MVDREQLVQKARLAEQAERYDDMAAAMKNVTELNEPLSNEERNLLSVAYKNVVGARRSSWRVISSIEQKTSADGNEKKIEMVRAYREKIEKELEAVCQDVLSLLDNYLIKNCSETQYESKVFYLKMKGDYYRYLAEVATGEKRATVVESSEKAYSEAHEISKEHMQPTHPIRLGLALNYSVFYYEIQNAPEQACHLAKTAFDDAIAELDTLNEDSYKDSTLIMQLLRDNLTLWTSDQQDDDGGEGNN
Experimental: (§1) Human MBP-tagged 14-3-3 isoforms were expressed from pMAL2CX plasmids [[Kilisch et al. (2016)], [Yuan et al. (2003)]] in E. coli BL21DE3 cells. After induction with […] isopropyl-β-D-thiogalactoside, the protein was expressed for 4 h at room temperature. Cells were lysed in MBP-lysis buffer [50 mM Tris–HCl pH 7.5, 150 mM NaCl, 5 mM MgCl2, 1 mM PMSF, 1× cOmplete Protease Inhibitor EDTA-free (Roche)] using a French Pressure cell (FRENCH Press, Thermo, United States). Following centrifugation at 42,000 × g and 4°C for 30 min, the supernatant was transferred to a Maltose-agarose column (1.5 ml bed volume; New England Biolabs GmbH, Germany). Captured proteins were washed six times with 10 ml wash buffer (50 mM Tris–HCl pH 7.5, 150 mM NaCl, 5 mM MgCl2) prior to elution using wash buffer including 15 mM D-maltose. To remove the MBP tag, fusion proteins were incubated with Factor Xa (New England Biolabs GmbH, Germany), at a final concentration of 0.4 μg per 1 mg fusion protein for 24 h at RT following another 72 h at 4°C. Anion exchange chromatography was finally applied to separate residual MBP using a buffer gradient from 20 mM Tris pH 8 to 20 mM Tris pH 8 with 1 M NaCl. For this a RESOURCE Q column (GE Healthcare, United Kingdom) was utilized, employing an ÄKTApurifier (GE Healthcare, United Kingdom) or an NGC Quest Chromatography System (Bio-Rad Laboratories GmbH, Germany).
(§2) FP was used to determine binding affinities of different phosphorylated and non-phosphorylated peptides derived from LRRK2 sequences (Peps4LS GmbH, Germany) toward human 14-3-3 isoforms. Direct binding assays were performed and evaluated as previously described ([Muda et al., 2014]; [Manschwetus et al., 2019]). Briefly, both dilution series of 14-3-3 isoforms ranging from final concentrations of at least 5 μM down to picomolar concentrations and dilutions of the respective fluorescein-labeled peptide (final conc. 1 nM) were prepared in FP buffer (20 mM MOPS pH 7, 150 mM NaCl, 0.005% CHAPS). Subsequently, samples were mixed in 384-well microtiter plates as duplicates (BRAND plates, pureGrade, black, BRAND GmbH & Co. KG, Germany) in a 1:1 ratio and measured using a CLARIOstar plate reader (BMG LABTECH, Germany). Two protein preparations were utilized for at least two independent replications for all measurements while high affinity binding peptides were particularly measured with a minimum of three independent replications for statistical evaluation. Data was analyzed with GraphPad Prism 6.0 (GraphPad Software, San Diego, CA, United States) by plotting obtained FP signals (mPol) against the logarithmic 14-3-3 protein concentrations. Data points represent means ± standard error of mean (SEM) of duplicates. “Ctrl.” indicates the FP signal of fluorescein-labeled peptides without 14-3-3 protein. Sigmoidal dose-response fitting was performed to define KD-values.

[2] = tested on: all seven human 14-3-3 isoforms; assay: Fluorescence polarization (FP) direct binding assay, statements over all isoforms; details: FP direct binding; all seven isoforms; fluorescein-labeled peptide 1 nM; FP buffer pH 7
Experimental: as §1, §2

| Molecule | Kd [1] | Binding to 14-3-3γ, in words [1] | Binding to the human 14-3-3 isoforms, in words [2] |
| --- | --- | --- | --- |
| CC[C@H](C)[C@H](NC(=O)[C@@H]1CCCN1C(=O)CNC(=O)[C@H](CC(C)C)NC(=O)[C@H](COP(=O)(O)O)NC(=O)[C@H](CC(N)=O)NC(=O)[C@H](CO)NC(=O)[C@H](Cc1c[nH]cn1)NC(=O)[C@H](CCCNC(=N)N)NC(=O)[C@H](CCCNC(=N)N)NC(=O)[C@H](CC(C)C)NC(=O)[C@H](CC(N)=O)NC(=O)[C@@H]1CCCN1C(=O)[C@H](CO)NC(=O)[C@H](CS)NC(=O)[C@@H](N)CCCNC(=N)N)C(=O)N[C@@H](Cc1ccccc1)C(=O)N[C@@H](CC(=O)O)C(=O)N[C@@H](Cc1c[nH]cn1)C(=O)O [Q930R/pS935] | 11.1 ± 10.7 nM | – | – |
| CC[C@H](C)[C@H](NC(=O)[C@H](COP(=O)(O)O)NC(=O)[C@H](CC(N)=O)NC(=O)[C@H](CO)NC(=O)[C@H](CCCCN)NC(=O)[C@@H](N)CCCCN)C(=O)N[C@@H](CO)C(=O)N[C@H](C(=O)NCC(=O)N[C@@H](CCC(=O)O)C(=O)N[C@@H](Cc1ccccc1)C(=O)N[C@@H](Cc1ccc(O)cc1)C(=O)N[C@@H](CCCNC(=N)N)C(=O)N[C@@H](CC(=O)O)C(=O)N[C@@H](C)C(=O)N[C@H](C(=O)N[C@@H](CC(C)C)C(=O)N[C@@H](CCC(N)=O)C(=O)N[C@@H](CCCNC(=N)N)C(=O)N[C@@H](CS)C(=O)N[C@@H](CO)C(=O)N1CCC[C@H]1C(=O)N[C@@H](CC(N)=O)C(=O)N[C@@H](CC(C)C)C(=O)N[C@@H](CCC(N)=O)C(=O)N[C@@H](CCCNC(=N)N)C(=O)N[C@@H](Cc1c[nH]cn1)C(=O)N[C@@H](CO)C(=O)N[C@@H](CC(N)=O)C(=O)N[C@@H](COP(=O)(O)O)C(=O)N[C@@H](CC(C)C)C(=O)NCC(=O)N1CCC[C@H]1C(=O)N[C@H](C(=O)N[C@@H](Cc1ccccc1)C(=O)O)[C@@H](C)CC)C(C)C)C(C)C [pS910/pS935] | 3.2 ± 0.5 nM | – | – |
| KKSN SISVGEFYRDAVLQRCSPNLQRHSNSLGPIF ({fluorescein″}-KKSNSISVGEFYRDAVLQRCSPNLQRHSNSLGPIF) [S910/S935, fluorescein-labeled non-phosphorylated LRRK2-derived 35-mer encompassing S910 and S935] | – | did not bind | – |
| KKSNSISVGEFYRDAVLQRCSPNLQRHSNpSLGPIF [S910/pS935, fluorescein-labeled LRRK2-derived 35-mer singly phosphorylated at S935] | – | only weak interactions | no isoform specificity could be distinguished |
| KKSNpSISVGEFYRDAVLQRCSPNLQRHSNSLGPIF [pS910/S935, fluorescein-labeled LRRK2-derived 35-mer singly phosphorylated at S910] | – | only weak interactions | no isoform specificity could be distinguished |
| LFNIKACASSSPVILVGT [R1441C, fluorescein-labeled non-phosphorylated LRRK2 Roc domain peptide with mutation R1441C] | – | did not bind; also recorded: no binding | did not bind any of the 14-3-3 isoforms |
| LFNIKARASSSPVILVGT [S1443/S1444, fluorescein-labeled non-phosphorylated LRRK2 Roc domain peptide covering S1443 and S1444] | – | – | no detectable binding |
| RCSPNLRRHSNSLGPIFDH [Q930R, fluorescein-labeled non-phosphorylated LRRK2-derived peptide with mutation Q930R] | – | neither the Q930R mutation nor the additional phosphorylation in pS933 could induce binding | – |
| RCSPNLRRHpSNSLGPIFDH [Q930R/pS933, fluorescein-labeled LRRK2-derived peptide with mutation Q930R and pS933] | – | – | no 14-3-3 binding was detectable |
